Structures can show the parent of a compound that is named as a salt.
How the values were obtained:
[1] = tested on: 60 different human pathogenic tumor cell lines; assay: DTP NCI-60 in vitro human tumor cell line screening (SRB); type: cell-based; conditions: mean growth inhibition of all 60 tumor cell lines, two days exposure
Experimental: For studying the pharmacological properties, the compounds of Examples 1 to 3 were tested under the “DTP NCI-60 in vitro human tumor cell line screening” of the National Cancer Institute (NCI), Bethesda, Md., United States. They were tested against 60 different human pathogenic tumor cell lines which originated from nine types of cancer (leukemia, non-small cell lung cancer, colon cancer, cancer of the CNS, melanoma, ovarian cancer, renal cancer, prostate cancer, breast cancer). To assess efficacy, the tumor cells were exposed to the compounds over two days, then growth inhibition was determined indirectly by determining the protein biomass with sulforhodamine B (SRB). Untreated cultures were used as reference. The mean-graph midpoint (MG_MIDGGI50) corresponds to a mean response rate of all tested human cell lines for the substance tested.

HeLa cells = assay: PARP apoptosis assay (HeLa cells); type: cell-based; conditions: after 8 h, FIG. 3
Experimental: (§1) In addition, exemplary compound 1 was tested for apoptotic activity. The enzyme PARP (poly-ADP ribose polymerase) can be used to determine the apoptotic status of a cell; the enzyme is cleaved into a 89 kDa fragment when the cell transitions into apoptosis and can therefore serve as a apoptosis marker ([…] S H et al, Cancer Research, 1993; 53:3976-3985). […] Etoposide was chosen as reference compound and tested as well.

human topoisomerase IIα = human topoisomerase IIα (Homo sapiens, UniProt P11388); assay: Decatenation assay (kDNA); type: biochemical; conditions: for inhibition of topo IIα: 10 μM and 100 μM, FIG. 2 lanes 4 and 5
Sequence of human topoisomerase IIα (P11388 whole entry): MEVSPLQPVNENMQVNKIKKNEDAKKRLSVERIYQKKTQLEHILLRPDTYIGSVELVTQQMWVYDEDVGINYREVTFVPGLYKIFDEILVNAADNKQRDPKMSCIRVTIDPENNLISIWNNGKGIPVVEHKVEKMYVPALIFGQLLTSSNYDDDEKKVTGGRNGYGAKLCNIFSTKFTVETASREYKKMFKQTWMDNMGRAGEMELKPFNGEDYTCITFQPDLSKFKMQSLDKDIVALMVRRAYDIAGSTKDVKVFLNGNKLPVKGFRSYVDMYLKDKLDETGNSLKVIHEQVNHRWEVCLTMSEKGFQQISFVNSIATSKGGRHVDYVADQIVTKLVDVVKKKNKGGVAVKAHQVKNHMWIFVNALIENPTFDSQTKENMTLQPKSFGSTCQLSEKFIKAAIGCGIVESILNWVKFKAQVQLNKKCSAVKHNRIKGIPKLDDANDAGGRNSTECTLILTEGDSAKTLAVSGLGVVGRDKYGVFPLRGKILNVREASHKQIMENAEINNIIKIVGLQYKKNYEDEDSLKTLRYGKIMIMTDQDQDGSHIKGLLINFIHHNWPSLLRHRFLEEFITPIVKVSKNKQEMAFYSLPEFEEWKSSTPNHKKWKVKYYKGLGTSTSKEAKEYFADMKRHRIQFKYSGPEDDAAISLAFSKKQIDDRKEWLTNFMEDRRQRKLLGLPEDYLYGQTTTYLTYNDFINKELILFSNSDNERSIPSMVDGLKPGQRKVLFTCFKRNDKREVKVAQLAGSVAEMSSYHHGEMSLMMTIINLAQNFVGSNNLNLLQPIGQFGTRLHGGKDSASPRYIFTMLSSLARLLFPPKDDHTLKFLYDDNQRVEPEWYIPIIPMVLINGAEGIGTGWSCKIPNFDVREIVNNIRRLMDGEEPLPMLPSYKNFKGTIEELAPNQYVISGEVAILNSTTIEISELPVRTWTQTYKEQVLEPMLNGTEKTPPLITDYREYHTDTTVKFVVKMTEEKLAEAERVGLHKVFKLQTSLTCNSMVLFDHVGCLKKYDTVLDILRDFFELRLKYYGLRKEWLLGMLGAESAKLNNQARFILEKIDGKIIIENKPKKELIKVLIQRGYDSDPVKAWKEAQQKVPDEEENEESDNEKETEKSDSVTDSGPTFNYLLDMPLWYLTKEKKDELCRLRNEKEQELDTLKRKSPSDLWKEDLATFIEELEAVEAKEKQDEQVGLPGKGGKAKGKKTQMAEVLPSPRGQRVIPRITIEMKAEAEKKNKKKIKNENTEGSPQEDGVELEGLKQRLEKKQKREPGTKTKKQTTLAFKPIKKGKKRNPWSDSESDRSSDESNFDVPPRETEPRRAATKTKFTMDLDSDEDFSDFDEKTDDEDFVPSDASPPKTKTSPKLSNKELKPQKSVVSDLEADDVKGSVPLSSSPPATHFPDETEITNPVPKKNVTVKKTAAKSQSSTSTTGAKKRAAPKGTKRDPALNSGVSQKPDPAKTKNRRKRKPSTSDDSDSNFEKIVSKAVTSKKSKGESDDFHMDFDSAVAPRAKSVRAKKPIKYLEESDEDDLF
Source text: (§2) A decatenation assay was used, which can be used to determine the inhibition of human topoisomerases II (α/β) by a substance. The protein is capable of decatenating kinetoplastid DNA (kDNA), which is present in the form of interlocked minicircles (so-called catenates), i.e. of cleaving it into individual minicircles.

human topoisomerase I = target: T1, human topoisomerase I (Homo sapiens, UniProt P11387); assay: Relaxation assay (supercoiled plasmid pUC18); type: biochemical
T1 sequence (P11387 1-765): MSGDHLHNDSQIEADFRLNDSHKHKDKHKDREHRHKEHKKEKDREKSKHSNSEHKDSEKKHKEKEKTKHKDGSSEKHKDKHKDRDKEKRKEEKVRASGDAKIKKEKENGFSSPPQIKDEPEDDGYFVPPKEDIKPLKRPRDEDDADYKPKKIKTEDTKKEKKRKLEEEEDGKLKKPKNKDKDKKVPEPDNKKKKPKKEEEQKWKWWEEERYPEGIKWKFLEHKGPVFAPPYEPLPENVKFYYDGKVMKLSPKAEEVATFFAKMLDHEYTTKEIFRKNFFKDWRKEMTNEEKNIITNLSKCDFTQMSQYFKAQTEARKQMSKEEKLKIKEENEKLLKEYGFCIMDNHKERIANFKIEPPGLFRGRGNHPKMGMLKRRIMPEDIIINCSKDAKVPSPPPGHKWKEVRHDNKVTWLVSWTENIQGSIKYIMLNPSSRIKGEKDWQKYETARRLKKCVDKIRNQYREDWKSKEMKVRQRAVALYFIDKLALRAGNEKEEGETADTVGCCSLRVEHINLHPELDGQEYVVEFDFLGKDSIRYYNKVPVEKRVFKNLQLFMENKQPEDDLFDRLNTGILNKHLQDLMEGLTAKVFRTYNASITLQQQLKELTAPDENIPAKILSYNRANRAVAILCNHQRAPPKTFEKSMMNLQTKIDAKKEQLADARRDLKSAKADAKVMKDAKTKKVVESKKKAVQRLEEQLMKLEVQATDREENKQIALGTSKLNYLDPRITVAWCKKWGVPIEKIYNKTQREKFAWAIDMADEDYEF
Source text: A relaxation assay can be used to determine the inhibition of human DNA topoisomerase I by a substance. Topo I is capable of transforming the supercoiled plasmid pUC18 into the relaxed form.

human topoisomerase IIβ = human topoisomerase IIβ (Homo sapiens, UniProt Q02880); assay: Decatenation assay (kDNA); type: biochemical; conditions: all three enzymes tested; read-out: IC50 topoisomerase IIβ
Sequence of human topoisomerase IIβ (Q02880 whole entry): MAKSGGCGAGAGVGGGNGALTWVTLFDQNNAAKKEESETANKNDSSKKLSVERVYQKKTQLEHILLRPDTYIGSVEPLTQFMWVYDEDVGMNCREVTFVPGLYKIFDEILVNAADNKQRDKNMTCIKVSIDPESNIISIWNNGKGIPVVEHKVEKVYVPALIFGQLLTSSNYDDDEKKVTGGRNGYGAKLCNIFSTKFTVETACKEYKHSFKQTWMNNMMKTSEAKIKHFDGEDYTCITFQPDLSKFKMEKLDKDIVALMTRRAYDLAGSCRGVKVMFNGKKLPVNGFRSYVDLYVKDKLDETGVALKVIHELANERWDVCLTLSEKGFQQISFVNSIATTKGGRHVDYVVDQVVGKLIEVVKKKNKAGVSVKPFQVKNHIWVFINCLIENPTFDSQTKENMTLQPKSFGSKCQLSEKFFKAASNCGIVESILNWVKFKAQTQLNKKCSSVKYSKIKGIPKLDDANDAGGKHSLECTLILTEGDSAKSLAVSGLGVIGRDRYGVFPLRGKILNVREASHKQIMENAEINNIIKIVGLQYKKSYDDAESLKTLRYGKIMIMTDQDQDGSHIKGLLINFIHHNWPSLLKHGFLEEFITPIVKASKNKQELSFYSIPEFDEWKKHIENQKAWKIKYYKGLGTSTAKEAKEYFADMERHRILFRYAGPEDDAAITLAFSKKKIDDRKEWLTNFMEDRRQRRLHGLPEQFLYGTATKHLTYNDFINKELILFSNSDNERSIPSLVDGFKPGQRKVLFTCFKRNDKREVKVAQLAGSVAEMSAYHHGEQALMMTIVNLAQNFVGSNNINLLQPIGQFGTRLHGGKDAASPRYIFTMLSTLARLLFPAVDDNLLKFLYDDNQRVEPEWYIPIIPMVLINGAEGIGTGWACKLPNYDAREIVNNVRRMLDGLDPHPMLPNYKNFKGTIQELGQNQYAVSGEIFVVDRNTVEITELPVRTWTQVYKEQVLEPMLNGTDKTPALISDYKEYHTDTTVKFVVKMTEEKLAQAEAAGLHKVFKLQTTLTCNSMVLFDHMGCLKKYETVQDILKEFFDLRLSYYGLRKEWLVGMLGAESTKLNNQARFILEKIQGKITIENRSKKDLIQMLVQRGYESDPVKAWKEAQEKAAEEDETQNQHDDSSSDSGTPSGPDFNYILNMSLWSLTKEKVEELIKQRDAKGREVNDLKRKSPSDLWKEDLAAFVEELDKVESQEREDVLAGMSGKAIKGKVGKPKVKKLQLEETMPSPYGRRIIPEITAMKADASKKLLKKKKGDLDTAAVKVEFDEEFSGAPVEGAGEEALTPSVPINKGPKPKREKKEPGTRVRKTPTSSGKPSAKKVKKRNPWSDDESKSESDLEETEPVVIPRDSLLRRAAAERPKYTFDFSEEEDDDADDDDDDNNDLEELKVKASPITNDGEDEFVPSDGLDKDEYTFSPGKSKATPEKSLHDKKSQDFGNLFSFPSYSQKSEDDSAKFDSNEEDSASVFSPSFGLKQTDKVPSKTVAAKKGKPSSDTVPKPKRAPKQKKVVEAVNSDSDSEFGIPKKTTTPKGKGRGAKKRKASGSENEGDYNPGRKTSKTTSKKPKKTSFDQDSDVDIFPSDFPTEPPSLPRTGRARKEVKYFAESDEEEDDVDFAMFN
Source text: as §2

[2] = Solubility pH 7.4 by HPLC analysis; type: physicochemical; conditions: aqueous buffer; pH 7.4, HPLC analysis
[3] = tested on: PARP (poly-ADP ribose polymerase) cleavage; assay: PARP assay comparing Example 1 and PZA (FIG. 4); type: cell-based
Experimental: as §1
Another PARP assay was performed to obtain a direct comparison of the pro-apoptotic effects of Example 1 (here: P8D 6) and the potent dual topoisomerase I/II inhibitor pyrazoloacridine (PZA) known from literature (FIG. 4).

logD by HPLC analysis = type: physicochemical; conditions: determined using HPLC analysis
[4] = Tolerability / MTD study, one-time intravenous application; type: in vivo, female athymic nude mice
Experimental: The maximum tolerated dose (MTD) was determined as part of an in vivo study of tolerability of P8-D6 in female athymic nude mice.
A total of 18 female athymic nude mice at ages of 7 weeks (groups 1 and 2), 8 weeks (groups 3 and 4), and 9 weeks (groups 5 and 6) were involved in the in vivo study.
To determine the tolerability of P8-D6 for a one-time intravenous application into the tail vein, the study animals of groups 2, 4, and 6 (3 animals per group) were given P8-D6 at doses of 1 mg/kg body weight, 5 mg/kg body weight, and 10 mg/kg body weight on study days 0, 7, and 14, respectively. The control animals of groups 1, 3, and 5 (3 animals per group) were administered PBS (phosphate buffered saline) (pH 7.4) at a dose of 10 mL/kg body weight on the same respective days. The study animals were monitored in a period of up to 14 days for clinical signs, changes in behavior, and survival. The body weight was measured three times a week. The first measurement was on the application day. Criteria for early abortion of the study for ethical reasons were weight loss of more than 20% from the baseline weight. A necropsy was performed on study animals that died during the study and on all other study animals at the end of the study phase. Organ samples were taken from six study animals ([…], 1 animal from group 1, 1 animal from group 2, and one animal from group 6).

[5] = clinical phase I; cited from earlier work
[6] = tested on: mammary carcinoma, ovarian carcinoma, colon carcinoma, renal cell carcinoma, and non-small cell lung cancer; conditions: literature; cited from earlier work
[7] = tested on: pancreatic carcinoma, ovarian carcinoma, and prostate cancer; conditions: phase II study, at least some cases; cited from earlier work
[8] = tested on: malignant melanoma, hepatocellular carcinoma, and mesothelioma; conditions: clinical study, with carboplatin; cited from earlier work
[9] = tested on: cancer in the head and neck, colon carcinoma, renal carcinoma, and non-small cell lung cancer; conditions: literature; cited from earlier work
[10] = tested on: malignant melanoma, cervical cancer, and cancer of the parotid gland; conditions: clinical phase I; cited from earlier work
[11] = tested on: colon carcinoma and non-small cell lung cancer; conditions: in-vivo xenograft; cited from earlier work

## CC[C@@]1(O)C(=O)OCc2c1cc1n(c2=O)Cc2cc3ccccc3nc2-1 [Camptothecin, reference compound]
[1]; Homo sapiens, 48 h
  GI50: 44 nM

## COc1cc([C@@H]2c3cc4c(cc3[C@@H](O[C@@H]3O[C@@H]5CO[C@@H](C)O[C@H]5[C@H](O)[C@H]3O)[C@H]3COC(=O)[C@H]23)OCO4)cc(OC)c1O [Etoposide, reference compound]
HeLa cells
  concentration at which cleaved PARP (89 kDa band) is visible / apoptosis initiated: > 100 µM
[1]; Homo sapiens, 48 h
  GI50: 990 nM

## COc1cc(-c2cc3ccncc3c3nc(OCCN(C)C)c4cnccc4c23)cc(OC)c1OC [Example 1, 6-(2-dimethylaminoethoxy)-11-(3,4,5-trimethoxyphenyl)pyrido[3,4-c][1,9]-phenanthroline Hydrochloride]
Human topoisomerase IIα; Hydrochloride
  inhibition of topo IIα: exemplary inhibition of topo IIα
Human topoisomerase IIα; listed as exemplary compound 1, Hydrochloride
  inhibition of topo IIα: potently inhibit topo IIα
Human topoisomerase IIα; all three enzymes tested, read-out: IC50 topoisomerase IIα
  IC50: < 10000 nM
Human topoisomerase I; all three enzymes tested, read-out: IC50 topoisomerase I
  IC50: < 10000 nM
Human topoisomerase I; at 10 μM, FIG. 1
  inhibition of topoisomerase I activity: almost complete
Human topoisomerase IIβ
  IC50: < 10000 nM
HeLa cells
  concentration at which cleaved PARP (89 kDa band) is visible / apoptosis initiated: 1 µM
[2]
  solubility: 0.87 ± 0.03 mM
[3]; FIG. 4, direct comparison with PZA
  apoptotic effect in PARP assay: extraordinarily strong apoptotic effect
logD by HPLC analysis
  chromatographic logD: 3.7
[4]; 1 mg/kg body weight, female athymic nude mice
  tolerability: good tolerability
[4]; 5 mg/kg body weight, female athymic nude mice
  loss of body weight and apathy: reversible
[4]; 1, 5 and 10 mg/kg body weight
  acute lethal side effects: None
[1]; Homo sapiens, 48 h
  GI50: 49 nM

## COc1cc(-c2cc3ccncc3c3nc(OCCCN(C)C)c4cnccc4c23)cc(OC)c1OC [Example 2, 6-(3-dimethylaminopropoxy)-11-(3,4,5-trimethoxyphenyl)pyrido[3,4-c][1,9]-phenanthroline]
logD by HPLC analysis
  chromatographic logD: 3.6
[1]; Homo sapiens, 48 h
  GI50: 52 nM

## CN(C)CCOc1nc2c(c3ccncc13)C(c1cccc(Cl)c1)Cc1ccncc1-2 (centres unmarked) [Example 3, 11-(3-chlorophenyl)-6-(2-dimethylaminoethoxy)-11,12-dihydropyrido[3,4-c]-[1,9]phenanthroline Hydrochloride]
[2]
  solubility: 5.28 ± 0.09 mM
logD by HPLC analysis
  chromatographic logD: 3.6
[1]; Homo sapiens, 48 h
  GI50: 447 nM

## Cc1cnc(NCCCN(C)C)c2c1[nH]c1ccc3cc(O)ccc3c12 [Intoplicin]
[5]
  hepatotoxicity: dose-limiting
[6]
  activity against carcinomas: high activity
[1]
  GI50: 530 nM

## CCc1c2c(nc3ccc(OC(=O)N4CCC(N5CCCCC5)CC4)cc13)-c1cc3c(c(=O)n1C2)COC(=O)[C@]3(O)CC [Irinotecan]
[1]; Homo sapiens, 48 h
  GI50: 160 nM

## COc1ccc2c(c1)-c1nn(CCCN(C)C)c3ccc([N+](=O)[O-])c(c13)N2 [PZA, pyrazoloacridine]
[3]; FIG. 4
  concentration at which effective in PARP assay: 100 µM
[7]
  clinical outcome: partial remission
[8]
  clinical outcome: could not be cured but were stabilized over a few months
[1]; Homo sapiens, 48 h
  GI50: 200 nM

## CN(C)CCNc1nc2cc(O)ccc2c2c1C(=O)c1ccccc1-2 [TAS-103]
[9]
  efficacy in patients: sufficient to keep patients stable for a period of a few months, but a cure could not be achieved

## COc1cc([C@@H]2c3cc4c(cc3[C@@H](O[C@@H]3O[C@@H]5CO[C@@H](c6cccs6)O[C@H]5[C@H](O)[C@H]3O)[C@H]3COC(=O)[C@H]23)OCO4)cc(OC)c1O [Teniposide]
[1]; Homo sapiens, 48 h
  GI50: 390 nM

## CC[C@@]1(O)C(=O)OCc2c1cc1n(c2=O)Cc2cc3c(CN(C)C)c(O)ccc3nc2-1 [Topotecan]
[1]; Homo sapiens, 48 h
  GI50: 14 nM

## COc1cccc2c1ccc1nc3cccc(C(=O)N[C@H](C)CN(C)C)c3nc12 [XR11576]
[10]
  clinical outcome: stabilization, but no remission
[11]
  activity in xenograft: high activity

Reference: patent publication US11046693B2, “Pyrido-phenanthroline derivatives, production and use thereof as medicaments” (Christian-Albrechts-Universitat Zu Kiel, priority 2016, dated 2021)
